Test [1] relates to Colo205 cell line. The test is described as follows: Colo205 cell proliferation assay (MTT assay, WST-8 readout). Format: cell-based. As to conditions: Homo sapiens; IC50 values of growth inhibition in Colo 205 cells; 72 hours. The method in brief:
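Colo205 cells were seeded at 5,000 cells/well in RPMI-1640 with 10% FBS and attached for 24 h at 37° C. They were then exposed for 72 h to compound at final 50 μM to 0.005 μM (0.5% DMSO). Viability was read as WST-8 absorbance at 450 nm after 2 h, and IC50 of growth inhibition was determined.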

For test [2], the target named is T1, human ERK2 (Homo sapiens, UniProt P28482).
T1 construct: recombinantly expressed as GST-tagged full-length protein purified from E. coli; GST; purchased Invitrogen PV3311; host or cells: E. coli
T1 sequence (P28482 whole entry): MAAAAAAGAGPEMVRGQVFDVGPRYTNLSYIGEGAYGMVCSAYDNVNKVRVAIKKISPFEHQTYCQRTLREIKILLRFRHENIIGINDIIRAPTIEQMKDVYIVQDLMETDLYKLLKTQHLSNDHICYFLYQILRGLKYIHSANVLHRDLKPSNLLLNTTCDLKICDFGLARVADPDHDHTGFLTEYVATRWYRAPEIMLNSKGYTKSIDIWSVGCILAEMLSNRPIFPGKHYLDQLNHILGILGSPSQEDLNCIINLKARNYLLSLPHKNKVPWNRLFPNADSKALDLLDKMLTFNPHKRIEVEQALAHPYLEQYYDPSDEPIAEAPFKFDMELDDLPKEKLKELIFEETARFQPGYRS
The test is described as follows: LanthaScreen TR-FRET enzymatic assay, ERK2. As to conditions: IC50 values of ERK2 biochemical activity; 5 μM ATP, 400 nM ATF2-GFP substrate. In a few lines:
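GST-tagged full-length ERK2 from E. coli, activated with MAP2K1, was used at 20 ng/ml with 400 nM GFP-ATF2(19-96) and 5 μM ATP (near Km). Compound was pre-incubated 15 min, and the reaction ran 1 h at room temperature. pThr71 was detected by Tb-antibody TR-FRET ratio, with IC50 from sigmoid fitting against 1% DMSO.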
(In general: Time-resolved FRET reads energy transfer from a long-lived donor to a nearby acceptor.)

By IC50 is commonly meant the point on the concentration scale where inhibition reaches its midpoint. Read a high IC50 as weaker potency in that assay. As to `Cc1cc(-c2n[nH]c3ccc(-c4ccn(Cc5ccc(F)c(Cl)c5)c(=O)c4)cc23)ccn1` [Example 65, 1-(3-chloro-4-fluorobenzyl)-4-(3-(2-methylpyridin-4-yl)-1H-indazol-5-yl)pyridin-2(1H)-one], the 50% inhibitory concentration (IC50) in test [1] is 500 to 1000 nM; in test [2], less than 10 nM.
Taken in the same sequence, the figures for `Cc1cc(-c2n[nH]c3ccc(-c4ccn(Cc5cc(Cl)ccc5F)c(=O)c4)cc23)ccn1` [Example 66] were 500 to 1000 nM and less than 10 nM.
As for `Cc1cc(-c2n[nH]c3ccc(-c4ccn(Cc5cccc(OC(F)(F)F)c5)c(=O)c4)cc23)ccn1` [Example 67, 4-(3-(2-methylpyridin-4-yl)-1H-indazol-5-yl)-1-(3-(trifluoromethoxy)benzyl)pyridin-2(1H)-one], the IC50 is 1000 to 5000 nM in test [1] and less than 10 nM in test [2].
Taken in the same sequence, the figures for `Cc1cc(-c2n[nH]c3ccc(-c4ccn(Cc5cccc(F)c5)c(=O)c4)cc23)ccn1` [Example 68, 1-(3-fluorobenzyl)-4-(3-(2-methylpyridin-4-yl)-1H-indazol-5-yl)pyridin-2(1H)-one] were 1000 to 5000 nM and less than 10 nM.
As for `Cc1cc(-c2n[nH]c3ccc(-c4ccn(Cc5ccc(Br)c(F)c5)c(=O)c4)cc23)ccn1` [Example 69, 1-(4-bromo-3-fluorobenzyl)-4-(3-(2-methylpyridin-4-yl)-1H-indazol-5-yl)pyridin-2(1H)-one], the IC50 in test [1] was 500 to 1000 nM; in test [2] it was less than 10 nM.
`Cc1cc(-c2n[nH]c3ccc(-c4ccn(Cc5cccc(C(F)(F)F)c5)c(=O)c4)cc23)ccn1` [Example 70, 4-(3-(2-methylpyridin-4-yl)-1H-indazol-5-yl)-1-(3-(trifluoromethyl)benzyl)pyridin-2(1H)-one]: the IC50 was 500 to 1000 nM in test [1] and less than 10 nM in test [2].
For the compound `Cc1cc(-c2n[nH]c3ccc(-c4ccn(Cc5cccc(C#N)c5)c(=O)c4)cc23)ccn1` [Example 71, 3-((4-(3-(2-methylpyridin-4-yl)-1H-indazol-5-yl)-2-oxopyridin-1(2H)-yl)methyl)benzonitrile], the IC50 in test [1] was 1000 to 5000 nM; in test [2], less than 10 nM.
Taken in the same sequence, the figures for `Cc1cc(-c2n[nH]c3ccc(-c4ccn(Cc5cc(F)ccc5F)c(=O)c4)cc23)ccn1` [Example 72, 1-(2,5-difluorobenzyl)-4-(3-(2-methylpyridin-4-yl)-1H-indazol-5-yl)pyridin-2(1H)-one] were 500 to 1000 nM and less than 10 nM.
For the compound `Cc1cc(-c2n[nH]c3ccc(-c4ccn(Cc5cc(F)cc(C(F)(F)F)c5)c(=O)c4)cc23)ccn1` [Example 73, 1-(3-fluoro-5-(trifluoromethyl)benzyl)-4-(3-(2-methylpyridin-4-yl)-1H-indazol-5-yl)pyridin-2(1H)-one], the values for the IC50 in test [1] and in test [2] were 500 to 1000 nM and less than 10 nM, respectively.
For `Cc1cc(-c2n[nH]c3ccc(-c4ccn(C(C)c5cc(F)cc(Br)c5)c(=O)c4)cc23)ccn1` (centres unmarked) [Example 74, 1-(1-(3-bromo-5-fluorophenyl)ethyl)-4-(3-(2-methylpyridin-4-yl)-1H-indazol-5-yl)pyridin-2(1H)-one], in that order: 500 to 1000 nM and less than 10 nM.
Taken in the same sequence, the figures for `Cc1cc(-c2n[nH]c3ccc(-c4ccn(Cc5cccc(Br)c5F)c(=O)c4)cc23)ccn1` [Example 75, 1-(3-bromo-2-fluorobenzyl)-4-(3-(2-methylpyridin-4-yl)-1H-indazol-5-yl)pyridin-2(1H)-one] were 500 to 1000 nM and less than 10 nM.
Take `Cc1cc(-c2n[nH]c3ccc(-c4ccn(Cc5cc(F)c(F)c(F)c5)c(=O)c4)cc23)ccn1` [Example 76, 4-(3-(2-methylpyridin-4-yl)-1H-indazol-5-yl)-1-(3,4,5-trifluorobenzyl)pyridin-2(1H)-one]: the values for the IC50 in test [1] and in test [2] were 500 to 1000 nM and less than 10 nM, respectively.
For `Cc1cc(-c2n[nH]c3ccc(-c4ccn(Cc5ccc(F)c(C(F)(F)F)c5)c(=O)c4)cc23)ccn1` [Example 77, 1-(4-fluoro-3-(trifluoromethyl)benzyl)-4-(3-(2-methylpyridin-4-yl)-1H-indazol-5-yl)pyridin-2(1H)-one], in that order: not above 500 nM and less than 10 nM.
